Read-outs that look alike come from different tables or passages of the source.
Assays:
H3K9AC (HT1080 cells) = experiment: H3K9AC Sandwich ELISA Assay in HT1080 cells (KAT2A primary cell-based screening assay); parameters: species or system Human
How it was run: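 Acetylated H3K9 quantified by luminescent sandwich ELISA (total H3 capture, H3K9ac detection) on HCl lysates of HT1080 cells. Cells had 24 h compound exposure at 37 °C, top concentration 10 µM, 10-point 3-fold series, 0.1% DMSO; IC50 from four-parameter fitting.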

MM.1S cells = experiment: MM1.S 10 Day Proliferation Assay (CellTiter-Glo); format: cell-based, Human
Method: Human B lymphoblast cell line MM.1S was obtained from American Type Culture Collection (ATCC), Manassas, VA USA, Cat. MM.1S (ATCC® CRL-2974™). Cells were cultured in RPMI (Thermo Fisher Scientific/Gibco Life Technologies Cat. #111875-093) plus 10% (v/v) FBS (Thermo Fisher Scientific/Gibco Life Technologies Cat. #26140-079) and 1% Penicillin-Streptomycin (Thermo Fisher Scientific/Gibco Life Technologies Cat. #15070063) at 37° C. in 5% CO2.
MM1.S cells were trypsinized cell viability count performed, and cells suspended in complete media at 5,556 cells/ml. Cells were then seeded (90 μl/well) into a 96-well round black/clear bottom, ULA (Ultra-Low Attachment surface plate (Corning cat #4520) at a density of 500 cells/well. Cells were then incubated for 16 hours at 37° C. and 5% CO2. Compound dilution plates were prepared in 96-well, clear U-bottom, polypropylene plates (Corning 3365) in 100% DMSO at 10 mM stock concentration in duplicate wells, using a 10-point serial dilution (1:3 dilutions). Compounds were diluted to 1:100 in growth medium. Then 10 μl of diluted compounds were added to each well of the cell plates using a Beckman FX liquid handling system such that the highest compound concentration tested was 10 μM final, with a 0.1% final DMSO concentration in the total volume of 100 μl. Plates were incubated for 10 total days at 37° C. and 5% CO2. Fresh media containing compound was refreshed at 5 days treatment.
Finally, the treatment plates were removed from the incubator and 100 μl of CellTiter-Glo Luminescent reagent was added to each well, and plates were equilibrated in the dark for 30 minutes. Plates were read on the PHERAstar plate reader using the 96-well with Luminescent reading mode. IC50 values were calculated using a four-parameter fit with GraphPad Prism version 9.5.1 or in house modified IDBS ActivityBase data analyzing package.

KAT2A = KAT2A (Homo sapiens (Human), UniProt Q92830); experiment: KAT2A acetyltransferase biochemical assay (RapidFire mass spectrometry, AcCoA to CoA)
[1] = read-out: KAT2A Ki at 1 μM AcCoA, 5 μM H3 1-21 peptide, 0.5 nM KAT2A, 90-minute reaction
[2] = Homo sapiens, HT-1080, H3K9AC sandwich ELISA
[3] = KAT2A Ki at 1 μM AcCoA, 5 μM H3 1-21 peptide, 0.5 nM KAT2A, 90-minute reaction

KAT2A, sequence (Q92830 whole entry): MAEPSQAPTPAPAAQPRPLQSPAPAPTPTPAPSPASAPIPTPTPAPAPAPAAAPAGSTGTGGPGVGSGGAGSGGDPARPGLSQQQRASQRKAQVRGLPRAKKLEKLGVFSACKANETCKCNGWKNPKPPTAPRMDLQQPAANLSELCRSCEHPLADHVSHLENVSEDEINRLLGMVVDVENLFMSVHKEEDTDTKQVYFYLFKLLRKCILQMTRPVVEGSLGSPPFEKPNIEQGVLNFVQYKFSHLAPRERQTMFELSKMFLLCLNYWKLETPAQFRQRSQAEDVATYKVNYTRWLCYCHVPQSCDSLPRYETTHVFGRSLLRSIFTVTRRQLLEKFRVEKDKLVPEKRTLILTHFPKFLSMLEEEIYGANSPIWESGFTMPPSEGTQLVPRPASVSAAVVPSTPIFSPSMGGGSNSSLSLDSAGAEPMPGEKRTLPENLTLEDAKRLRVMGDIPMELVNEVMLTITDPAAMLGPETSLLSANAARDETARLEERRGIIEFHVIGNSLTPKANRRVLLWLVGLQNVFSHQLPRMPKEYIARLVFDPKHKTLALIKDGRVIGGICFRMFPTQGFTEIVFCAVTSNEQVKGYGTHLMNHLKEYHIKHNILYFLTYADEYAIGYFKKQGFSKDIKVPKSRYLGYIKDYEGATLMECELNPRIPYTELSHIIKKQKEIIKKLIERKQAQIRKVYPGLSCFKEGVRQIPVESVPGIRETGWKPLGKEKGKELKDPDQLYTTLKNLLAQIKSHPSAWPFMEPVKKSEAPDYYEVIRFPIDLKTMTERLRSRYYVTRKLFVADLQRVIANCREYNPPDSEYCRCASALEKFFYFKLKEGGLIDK

| IC50 (H3K9AC (HT1080 cells); H3K9AC sandwich ELISA) | Ki (KAT2A; [1]) | IC50 (H3K9AC (HT1080 cells); [2]) | Compound | other results |
| --- | --- | --- | --- | --- |
| 3 nM |  |  | CC(C)c1ccccc1-c1cc(C(=O)O)ccc1O[C@@H]1CC[C@@H](NC(=O)[C@@]2(F)CNC3(CCCC3)C2)C1 (single isomer, unassigned) [Example A41] | IC50 (MM.1S cells): 9.2 nM |
|  | 1800 nM |  | CC(C)(C(=O)O)c1ccc(O[C@@H]2CC[C@@H](NC(=O)[C@@]3(F)CNC4(CCCC4)C3)C2)c(-c2cccc(F)c2C2CCC2)c1 (single isomer, unassigned) [Example A5] | IC50 (MM.1S cells; Homo sapiens, MM1.S, 240 h): 7560 nM |
| 8.7 nM | 0.07 nM |  | CCc1c(F)cccc1-c1cc([C@@H](C)C(=O)NS(=O)(=O)C2(C)CC2)ccc1O[C@@H]1CC[C@@H](NC(=O)[C@@]2(F)CNC3(CCC3)C2)C1 (single isomer, unassigned) [Example C82] |  |
| > 1000 nM | > 1000 nM |  | CC[C@](C)(C(=O)O)c1ccc(O[C@@H]2CC[C@@H](NC(=O)[C@]3(F)CNC4(CCC4)C3)C2)c(-c2cccc(F)c2C2CCC2)c1 (single isomer, unassigned) [Example A11] |  |
| 746 nM | > 1000 nM |  | Cn1cc(-c2ccc(O[C@@H]3CC[C@@H](NC(=O)[C@]4(F)CNC5(CCC5)C4)C3)c(-c3cccc(F)c3C3CCC3)c2)c(C(C)(C)C(=O)O)n1 (single isomer, unassigned) [Example J6] |  |
|  | 0.48 nM | 8.5 nM | CCc1ccccc1-c1cc(CC(=O)NS(=O)(=O)C(C)C)ccc1O[C@@H]1CC[C@@H](NC(=O)[C@@]2(F)CNC3(CCC3)C2)C1 [Example C52, (7S)-N-[(1R,3R)-3-({2′-ethyl-5-[2-oxo-2-(propane-2-sulfonamido)ethyl][1,1′-biphenyl]-2-yl}oxy)cyclopentyl]-7-fluoro-5-azaspiro[3.4]octane-7-carboxamide] |  |
| > 1000 nM | 25.8 nM |  | O=C(O)c1nn(C2CC2)cc1-c1ccc(O[C@@H]2CC[C@@H](NC(=O)[C@@]3(F)CNC4(CCC4)C3)C2)c(-c2cccc(F)c2C2CCC2)c1 (single isomer, unassigned) [Example J12] |  |
| 95.6 nM | 29.1 nM |  | O=C(O)Cc1ccc(O[C@@H]2CC[C@@H](NC(=O)[C@@]3(F)CNC4(CCCC4)C3)C2)c(-c2cccc(F)c2C2CCC2)c1 (single isomer, unassigned) [Example A26] |  |
| 18.2 nM | 0.85 nM |  | CCS(=O)(=O)NC(=O)C(C)(C)c1ccc(O[C@@H]2CC[C@@H](NC(=O)[C@@]3(F)CNCC4(CCC4)C3)C2)c(-c2cccc(F)c2C2CCC2)c1 (single isomer, unassigned) [Example B32] |  |
| 39.8 nM |  |  | CC(C)S(=O)(=O)NC(=O)Cc1ccc(O[C@@H]2CC[C@@H](NC(=O)[C@]3(F)CNC4(CCC4)C3)C2)c(-c2cccc(F)c2C2CCC2)c1 (single isomer, unassigned) [Example C41] | Ki (KAT2A; [3]): 4.1 nM |
| 562 nM |  |  | CCS(=O)(=O)NC(=O)C(C)(C)c1ccc(O[C@@H]2CC[C@@H](NC(=O)C3(F)CNC4(CCC4)C3)C2)c(-c2cccc(F)c2C2CCC2)c1 (single isomer, unassigned) [Example B1] | Ki (KAT2A; [3]): 80.5 nM |
|  | 2.55 nM | 55.2 nM | CN1CC(C)(C)CC1C(=O)N[C@H]1C[C@H](COc2ccc(CC(=O)NS(C)(=O)=O)cc2-c2cccc(F)c2C2CCC2)C1 (stereo partly drawn) [Example G1, N-[(1r,3S)-3-{[(2′-cyclobutyl-3′-fluoro-5-{2-[(methanesulfonyl)amino]-2-oxoethyl}[1,1′-biphenyl]-2-yl)oxy]methyl}cyclobutyl]-1,4,4-trimethyl-L-prolinamide] |  |
|  | 0.09 nM | 0.9 nM | CC(C)S(=O)(=O)NC(=O)C(C)(C)c1ccc(O[C@@H]2CC[C@@H](NC(=O)[C@@]3(F)CNC4(CCCC4)C3)C2)c(-c2cccc(F)c2C2CCC2)c1 (single isomer, unassigned) [Example B24] |  |
|  | 0.11 nM | > 1000 nM | O=C(O)c1ccc(O[C@@H]2CC[C@@H](NC(=O)[C@@]3(F)CNC4(CCC4)C3)C2)c(-c2cccc(F)c2C2CCC2)c1 [Example A29, 2′-cyclobutyl-3′-fluoro-6-{[(1R,3R)-3-{[(7S)-7-fluoro-5-azaspiro[3.4]octane-7-carbonyl]amino}cyclopentyl]oxy}[1,1′-biphenyl]-3-carboxylic acid] |  |
| 1 nM | 0.01 nM |  | CCS(=O)(=O)NC(=O)Cc1ccc(O[C@@H]2CC[C@@H](NC(=O)[C@@]3(F)CNC4(CCCC4)C3)C2)c(-c2cccc(F)c2C2CCC2)c1 (single isomer, unassigned) [Example C71] |  |
| 790 nM |  |  | C[C@@H](C(=O)O)c1nn(C)cc1-c1ccc(O[C@@H]2CC[C@@H](NC(=O)[C@]3(F)CNC4(CCC4)C3)C2)c(-c2cccc(F)c2C2CCC2)c1 (single isomer, unassigned) [Example J2] | Ki (KAT2A; [3]): 61.6 nM |
| 5.73 nM | 1.13 nM |  | CN1CC(C)(C)C[C@H]1C(=O)N[C@H]1C[C@H](Oc2cccc(CC(=O)O)c2-c2cccc(F)c2C2CCC2)C[C@H]1O (atropisomer, axis not shown) [Example K6, [(1ψ)-2′-cyclobutyl-3′-fluoro-6-({(1S,3R,4S)-3-hydroxy-4-[(1,4,4-trimethyl-L-prolyl)amino]cyclopentyl}oxy)[1,1′-biphenyl]-2-yl]acetic acid] |  |
| 3.6 nM | 0.06 nM |  | CC1(C)CNC[C@](F)(C(=O)N[C@@H]2CC[C@@H](Oc3ccc(CC(=O)NS(=O)(=O)C4(C)CC4)cc3-c3cccc(F)c3C3CCC3)C2)C1 (single isomer, unassigned) [Example C79] |  |
|  | 0.21 nM | 10.3 nM | CCS(=O)(=O)NC(=O)[C@H](C)c1ccc(O[C@@H]2CC[C@@H](NC(=O)[C@@]3(F)CNC4(CCC4)C3)C2)c(-c2ccccc2C(C)C)c1 (single isomer, unassigned) [Example C88] |  |
| 73.5 nM | 0.04 nM |  | CCS(=O)(=O)NC(=O)Cc1ccc(O[C@@H]2CC[C@@H](NC(=O)[C@@]3(F)CNC4(CCCC4)C3)C2)c(-c2cccc(F)c2C2CCC2)c1 (single isomer, unassigned) [Example C70] |  |
|  | 0.1 nM | 7 nM | CCS(=O)(=O)NC(=O)Cc1ccc(O[C@@H]2CC[C@@H](NC(=O)[C@@]3(F)CNC4(CCC4)C3)C2)c(-c2ccccc2C(C)C)c1 [Example C53, (7S)-N-[(1R,3R)-3-({5-[2-(ethanesulfonamido)-2-oxoethyl]-2′-(propan-2-yl)[1,1′-biphenyl]-2-yl}oxy)cyclopentyl]-7-fluoro-5-azaspiro[3.4]octane-7-carboxamide] |  |
|  | 1.08 nM | 19 nM | CN1CC(C)(C)C[C@H]1C(=O)N[C@@H]1CC[C@@H](Oc2ccc(C(=O)O)cc2-c2cccc(F)c2C2CCC2)C1 [Example D6, 2′-cyclobutyl-3′-fluoro-6-({(1R,3R)-3-[(1,4,4-trimethyl-L-prolyl)amino]cyclopentyl}oxy)[1,1′-biphenyl]-3-carboxylic acid] |  |
| 53.6 nM | 1.41 nM |  | CC(C)(C(=O)O)c1ccc(O[C@@H]2CC[C@@H](NC(=O)[C@@]3(F)CNCC4(CCC4)C3)C2)c(-c2cccc(F)c2C2CCC2)c1 (single isomer, unassigned) [Example A28] |  |
|  | 1.3 nM | 30.4 nM | C[C@@H](C(=O)NS(C)(=O)=O)c1ccc(OC[C@H]2C[C@H](NC(=O)[C@@H]3CC(C)(C)CN3C)C2)c(-c2cccc(F)c2C2CCC2)c1 (single isomer, unassigned) [Example G4] |  |
|  | 2750 nM | > 1000 nM | CCc1c(F)cccc1-c1cc(C(C)(C)C(=O)NS(=O)(=O)CC)ccc1O[C@@H]1CC[C@@H](NC(=O)[C@@]2(F)CNC3(CCC3)C2)C1 [Example C17, (7S)-N-[(1R,3R)-3-({5-[1-(ethanesulfonamido)-2-methyl-1-oxopropan-2-yl]-2′-ethyl-3′-fluoro[1,1′-biphenyl]-2-yl}oxy)cyclopentyl]-7-fluoro-5-azaspiro[3.4]octane-7-carboxamide] |  |
| > 1000 nM | > 99.9 nM |  | O=C(O)c1ccc(O[C@@H]2CC[C@@H](NC(=O)[C@@]3(F)CNC4(CCCC4)C3)C2)c(-c2cccc(F)c2C2CCC2)c1 (single isomer, unassigned) [Example A35] |  |
| 2.4 nM | 0.08 nM |  | CCc1c(F)cccc1-c1cc([C@@H](C)C(=O)NS(=O)(=O)C2(C)CC2)ccc1O[C@@H]1CC[C@@H](NC(=O)[C@@]2(F)CNC3(CCC3)C2)C1 (single isomer, unassigned) [Example C83] |  |

Source: patent US20250188030A1, “Biphenyl and Phenylpyridine Compounds” (Pfizer Inc., priority 2023, published 2025)
